These are literature values, as cited in patent US5834196A, “Method for detecting and/or optionally quantifying and/or separating apoptotic cells in or from a sample” (Nexins Research B.V., priority 1994, dated 1998).

One may read the Kd as the equilibrium constant for the complex coming apart.

The data set has as its target annexin V. To be noted: phosphatidyl serine containing membranes; Ca^2+ dependent binding; given as an estimation.

Consider phosphatidyl serine, for which the Kd is < 0.1 nM.
